In patent US10603335B2, “Cancer treatment combination compositions, methods and uses” (Board of Supervisors of Louisiana State University and …, priority 2016, dated 2020):

Legend:
[1] = tested on: non-target control (NT) Panc-1 spheroides; assay: 3D spheroid growth, non-target control (NT) Panc-1; assay type: cell-based; conditions: 30 μM
[2] = tested on: LHRHR knock-down (KD) Panc-1 spheroides; assay: 3D spheroid growth, LHRHR knock-down (KD) Panc-1; assay type: cell-based; conditions: LHRHR KD Panc-1; 30 μM
[3] = tested on: XIAP, cIAP1 and cIAP2 mRNA in Panc-1 cells; assay: Quantitative PCR of inhibitors of apoptosis, Panc-1; assay type: cell-based; conditions: 50 uM, 24 h post-treatment, relative to DMSO, GAPDH reference
Experimental: mRNA levels of XIAP, c-IAP1 and c-IAP2 were determined by quantitative real-time PCR using the SYBR Green Real-Time PCR Master Mix form ThermoFisher. Thermal cycling was carried out using the CFX system from BioRad under the following conditions: 95° C. for 10 min and 40 cycles at 95° C. for 15 s and 55° C. for 60 s. mRNA expression for any given gene is represented as comparative to the DMSO-treated cells. GAPDH was used as the housekeeping gene of reference.
GAPDH was used as a reference. Results presented in FIG. 12A (XIAP relative mRNA levels), FIG. 12B (cIAP1 relative mRNA levels), FIG. 12C (cIAP2 relative mRNA levels).

[4] = tested on: TGFβ pathway genes in PATC53 pancreatic cancer cells; assay: Quantitative PCR of TGFβ pathway genes, PATC53; assay type: cell-based; conditions: TGFβ 100 ng/ml, LHRH-curcumin 20 μM and 50 μM
Experimental: GAPDH was used as a reference.
mRNA levels of Smad3, SNAI1, SNAI2, TGFBRI, TGFBRII, GADD45 and XIAP were determined by quantitative real-time PCR using the Roche Universal Library Probe protocol. Thermal cycling was carried out using the LightCycler96 system from Roche under the following conditions: 95° C. for 10 min and 40 cycles at 95° C. for 15 s and 55° C. for 60 s. mRNA expression for any given gene is represented as comparative to the control-treated cells. GAPDH was used as the housekeeping gene of reference.

PDAC PDXs tissue slices = assay: Live Tissue Sensitivity Assay (LTSA), panel of PDAC PDXs; assay type: cell-based; conditions: 16 PDAC PDXs tested; single agent
Experimental: (§1) Animal experiment protocol was reviewed and approved by The University of Texas MD Anderson Cancer Center (Houston, Tex.) institutional review board and in accordance with the Guidelines for the Care and Use of Laboratory Animals published by the National Institutes of Health. PDXs were grown from cryopreserved early passages of PDXs in nude mice as described in previous publications (Kim M P, et al, Nat Protoc 2009; 4(11): 1670-80). Briefly, tumor samples stored in CryoStor™ CS10 storage medium were recovered and cut into about 2 mm3 fragments, soaked in Matrigel, and implanted into the subcutaneous space of Balb/c nude mice (5 mice/PDX). Tumors were harvested when they reach 1.5 cm in diameter for generating tissue slices for drug testing with quadruplicates.
(§2) About 100 tissue slices were produced from 1 tumorgraft with tissue slicer and arrayed in 96-well plates with previously established method (Roife D, et al, Clin Cancer Res 2016). […] Same volume of medium with 0.1% DMSO was added into control wells. After 72 hours, tissue viabilities were measured with PrestoBlue method. Viability inhibition will be calculated through normalization of viabilities of tissue slices treated with inhibitor against the viability of control (DMSO treated) slices. Inhibition of viability was further analyzed with t-test. […]

PATX213 tissue slices = assay: Live Tissue Sensitivity Assay (LTSA), PATX213; assay type: cell-based; conditions: single agent, 72 hours
Experimental: as §1, §2

PATX162 tissue slices = assay: Live Tissue Sensitivity Assay (LTSA), PATX162; assay type: cell-based; conditions: single agent, 72 hours
Experimental: as §1, §2

[5] = four mice treated with LHRH-curcumin twice a week (20 mg/kg)
Experimental: Samples of tumor tissue were weighed, then pulverized using a Bessman Tissue Pulverizer cooled 3-5 minutes in liquid nitrogen. Resultant powder was then placed in glass homogenizing chamber, mixed in PBS to 20% solution, and crushed to produce final homogenate. 200 Ml aliquot of homogenate was dispensed in Axygen 2 mL clear microtube (Part #: MCT-200-C-S). Each sample was extracted with 1 mL 10% methanol/90% ethyl acetate, vortexed, and spun 30 minutes at 14,000 rpm in a cold room centrifuge. The upper organic phase layer was then removed and placed in separate microcentrifuge tubes. The procedure was repeated, and pooled tumor extracts were concentrated using a Savant SpeedVac. Samples were reconstituted in 100 μL of 1 mM ascorbic acidic MeOH (pH 4.6), mixed in a sonication bath for 2 minutes, and 75 μL were injected on-column. Reverse-phase HPLC (Agilent 1100 series) with a Thermo ODS Hypersil 5 μm 250 mm×4.6 mm analytical column (Part #: 30105-252130) operated at ambient temperature was used to quantify curcumin in tumor. The mobile phase was 0.1% TFA (Mobile A) and acetonitrile with 0.08% TFA (Mobile B). […] With all analyses performed at 0.5 mL/min flow rate and fluorescence detection at Ex 420 nm and Em 524 nm, curcumin eluted at about 16.5 minutes.

physchem = conditions: saline (PBS)

Q: Which results are given for `COc1cc(/C=C/C(=O)CC(=O)/C=C/c2ccc(OC(=O)CCCC(=O)NCCCC[C@@H](NC(=O)[C@H](Cc3ccc(O)cc3)NC(=O)[C@H](CO)NC(=O)[C@H](Cc3c[nH]c4ccccc34)NC(=O)[C@H](Cc3c[nH]cn3)NC(=O)[C@@H]3CCC(=O)N3)C(=O)N[C@@H](CC(C)C)C(=O)N[C@@H](CCCNC(=N)N)C(=O)N3CCC[C@H]3C(=O)NCC(N)=O)c(OC)c2)ccc1O` [LHRH-curcumin, [DLys6]-LHRH-Curcumin]?
A: spheroids growth [1]: superior to that of LHRH or curcumin alone; spheroids growth [2]: still has an effect on spheroids growth formed by LHRHR KD cells, its effect was inferior to that of curcumin alone; mRNA levels of XIAP, cIAP1 and c-IAP2 [3]: down-regulated; mRNA levels of GADD45 and XIAP [4]: affected; mRNA levels of TGFβ signaling genes (SMAD3, SNAI1, SNAI2, TGFBRI, TGFBRII) ([4]; 24 h and 48 h): down-regulated; number of PDXs sensitive (PDAC PDXs tissue slices): 8; Sensitivity To LHRH-C (PATX213 tissue slices): Sensitive (The tissue was defined as sensitive to the treatment if both p<0.05 and at least 30% of tissue slice viability on average was inhibited); Sensitivity To LHRH-C (PATX162 tissue slices): Sensitive (The tissue was defined as sensitive to the treatment if both p<0.05 and at least 30% of tissue slice viability on average was inhibited); free curcumin in tumor tissue extract (HPLC peak at approximately 16.5 min) [5]: free curcumin present in the extract; solubility (physchem): ≥ 24 mg/mL
